Reference: the NIST ThermoML archive (doi:10.1016/j.jct.2012.03.029)

Test: mn = molality of the nth substance listed, in mol/kg
Conditions: 101 kPa, Liquid, m1 = 0.01; for speed of sound: Sing-around technique in a fixed-path interferometer; for mass density: Vibrating tube method

OC[C@H]1O[C@@H]2O[C@H]3[C@H](O)[C@@H](O)[C@@H](O[C@H]4[C@H](O)[C@@H](O)[C@@H](O[C@H]5[C@H](O)[C@@H](O)[C@@H](O[C@H]6[C@H](O)[C@@H](O)[C@@H](O[C@H]7[C@H](O)[C@@H](O)[C@@H](O[C@H]8[C@H](O)[C@@H](O)[C@@H](O[C@H]1[C@H](O)[C@H]2O)O[C@@H]8CO)O[C@@H]7CO)O[C@@H]6CO)O[C@@H]5CO)O[C@@H]4CO)O[C@@H]3CO [β-cyclodextrin] + O
Conditions	mass density [kg/m3]	speed of sound [m/s]
293.15 K	1001.93	1484.4
298.15 K	1000.75	1498.5
303.15 K	999.217	1510.9
308.15 K	997.709	1521.5
